Read-outs that look alike come from different tables or passages of the source.
Legend:
[1] = test system: C57BL/6N female mice; experiment: Object recognition task; conditions: normal mice, 0.03 µmol i.c.v.
[2] = test system: C57BL/6N female mice; experiment: T-maze continuous alternation; conditions: normal mice
[3] = test system: extracellular ACh concentration in the nucleus accumbens; conditions: for 0AUC120 min (% increase x min) Mean ± SEM: 0 to 120 min; for Increase in ACh release (Peak increase as % of basal output): nucleus accumbens
[4] = target: T1, σ receptors labelled by [^3H](+)-pentazocine (σ1) (Cavia porcellus, UniProt Q60492); experiment: Sigma receptor binding assay, [3H](+)-pentazocine; design: species or system guinea pig
T1 construct: from tissue; host or cells: guinea pig brain membranes
Method: (§1) Filters were washed three times with 5 ml of ice-cold 10 mM Tris-HCI buffer (pH 8). The bound radioactivity was measured by liquid scintillation counting (Beckman Coulter™ LS6500). […] The values are expressed as the mean ± S.E.M of 2 - 4 independent experiments, each performed in duplicate.

[5] = target: T2, δ opioid receptors (Rattus norvegicus, UniProt P33533); experiment: Opioid receptor binding assay, [3H][Ile5,6]deltorphin II, rat brain membranes; design: species or system Sprague-Dawley rat
T2 construct: Membrane fractions were prepared from Sprague-Dawley rat or guinea pig brains; from tissue; host or cells: Sprague-Dawley rat brain (without cerebella) membranes
Method: (§2) Briefly, brains without cerebella were homogenised on ice in 5 volumes of ice-cold 50 mM Tris-HCI buffer (pH 7.4) and diluted in 30 volumes of the same buffer. After centrifugation at 40,000 x g for 20 min at 4°C, the pellets were resuspended in 30 volumes of Tris-HCI buffer and incubated at 37 °C for 30 min (rat brain) or for 10 min (guinea pig brain). The centrifugation step was repeated and the final pellets were resuspended in 5 volumes of 50 mM Tris-HCI buffer (pH 7.4) containing 0.32 M sucrose to give a protein concentration of 4 - 6 mg/ml. Protein concentration was determined by the method of Bradford using bovine serum albumin as standard.
(§3) Binding experiments were performed in 50 mM Tris-HCI buffer (pH 7.4) in a final volume of 1 ml containing 0.3 - 0.5 mg protein and different concentrations of the compounds. […] Guinea pig brain membranes were incubated with [^3H]U69,593 (30 min, 30 °C). Non-specific binding was determined in the presence of 10 µM unlabeled naloxone. […] Inhibition constant (Ki) values were calculated from competition binding curves using GraphPad Prism (San Diego, CA, USA) program. The values are expressed as the mean ± S.E.M of 2-4 independent experiments, each performed in duplicate.
(§4) The morphinan-6-one compounds of the present invention were evaluated in in vitro receptor binding assays for their interaction abilities with µ, δ and k opioid receptors. […] The affinities of the compounds at k opioid receptors were determined by displacement of [^3H]U69,593 using guinea pig brain membranes.

[6] = target: T3, µ opioid receptor (Rattus norvegicus, UniProt P33535); experiment: Opioid receptor binding assay, [3H]DAMGO, rat brain membranes; design: Membrane fractions were prepared from Sprague-Dawley rat or guinea pig brains; from tissue; host or cells: Sprague-Dawley rat brain (without cerebella) membranes; species or system Sprague-Dawley rat
Method: as §2, §3, §4

[7] = target: T4, k opioid receptors (Cavia porcellus, UniProt P41144); experiment: Opioid receptor binding assay, [3H]U69,593, guinea pig brain membranes
T4 construct: Membrane fractions were prepared from Sprague-Dawley rat or guinea pig brains; from tissue; host or cells: guinea pig brain (without cerebella) membranes
Method: as §2, §3, §4

[8] = target: T5, δ receptor (Rattus norvegicus, UniProt P33533); experiment: [35S]GTPγS functional assay, rat brain membranes, δ receptor; assay type: biochemical, Sprague-Dawley rat
T5 construct: Membrane fractions were prepared from Sprague-Dawley rat or guinea pig brains; from tissue; host or cells: Sprague-Dawley rat brain (without cerebella) membranes
Method: (§5) Membrane fractions were prepared from Sprague-Dawley rat or guinea pig brains as described above. To determine binding of [^35S]GTPyS, rat or guinea pig brain membranes (10 µg of protein) were incubated for 60 min at 30 °C in Tris-EGTA buffer (50 mM Tris-HCl buffer, 3 mM MgCl2, 1 mM EGTA, […], pH 7.4) containing 30 µM GDP, 0.05 nM [^35S]GTPyS and appropriate concentrations of the respective compounds according to the present invention in a final volume of 1 ml. The reaction was terminated by vacuum filtration through Whatman GF/B glass fibre filters. Filters were washed three times with ice-cold 50 mM Tris-HCI buffer (pH 7.4) and the bound radioactivity was measured by liquid scintillation counting (Beckman Coulter™ LS6500). Basal activity was determined by subtracting the non-specific binding (measured in the presence of 100 µM unlabelled GTPyS) from the total binding (measured in the absence of the compound).
(§6) Stimulation produced by the compound is given as percentage of the basal activity (given as 100%). Functional data, EC50 (nM; half maximal effective concentration) and maximal stimulation Emax (% stimulation over basal level; maximal effective concentration), were calculated by using nonlinear regression analysis and sigmoidal curve fitting GraphPad Prism (San Diego, CA, USA) program. The values are expressed as the mean ± S.E.M of at least 3 independent experiments, each performed in triplicate. Statistical analysis was carried out using SPSS software (SPSS Inc., Chicago, lL, USA) and the Student T-test was used to compare different assay conditions. A ρ value < 0.05 was considered statistically significant.

[9] = target: T3, µ opioid receptor; experiment: [35S]GTPγS functional assay, rat brain membranes, µ receptor; assay type: biochemical, Sprague-Dawley rat; design: Membrane fractions were prepared from Sprague-Dawley rat or guinea pig brains; from tissue; host or cells: Sprague-Dawley rat brain (without cerebella) membranes
Method: as §5, §6

[10] = test system: frontal cortex synaptosomes; experiment: ACh release from synaptosomes (15 mM K+-evoked [3H]-ACh release, superfusion); assay type: cell-based, male Sprague Dawley rats; conditions: 15 mM K+
Method: Preparation of synaptosomes: synaptosomes were prepared from brain frontal cortex of male Sprague Dawley rats (4 months old). The frontal cortex was rapidly dissected on ice and homogenized in 40 volumes of 0.32 M sucrose buffered at pH 7.4 with 0.01 M sodium phosphate. The homogenate was centrifuged at 1,000 g for 5 min. The crude synaptosomal pellet was obtained by centrifugation of the supernatant at 15,000 g for 20 min and was resuspended in 5 ml basal medium (125 mM Nacl, 3 mM KCI, 1.2 mM MgS04, 1.2 mM CaCl2, 1.0 mM NaH2PO4, 22 mM NaHCO3 and 10 mM glucose) which had been gassed with 95% O2 - 5% CO2 at 37 °C, pH 7.2 - 7.4.
Superfusion protocol: The synaptosomal suspension was incubated with [^3H]-choline (0.03 µM, 17.5x10^6 Bq/g) for 15 min at 37 °C. Then, the suspension was diluted (1:8) and aliquots were applied on filters in a continuous superfusion system with parallel chambers maintained at 37 °C. The media used for superfusion were basal medium and 15 mM K^+-containing stimulation medium. Both media were supplemented with ACh (1 µM) to facilitate the effectiveness of an allosteric potentiating ligand at the nicotine receptor and with atropine (0.1 µM) to block M2 presynaptic receptors. Synaptosomes were superfused with basal medium for 30 min to reach a constant outflow of [^3H]-ACh. Under these experimental conditions, the radioactivity released consisted largely of newly synthesized [^3H]-ACh. The K^+-stimulated release of [^3H]-ACh was determined in 2 subsequently collected fractions: 6 min basal release (superfusion with basal medium) and 6 min K^+-evoked release (superfusion for 1.5 min with 15 mM K^+-containing medium followed by […] basal medium). The test compounds galantamine, 4 and 2 were present in the superfusion medium concomitantly with 15 mM K^+ (for 1.5 min). Basal release of [^3H]-ACh (continuous superfusion with basal medium) was determined by collection of a 6 min sample followed by four subsequent 2 min samples. Aliquots of samples were mixed with scintillation liquid and the radioactivity quantified with a scintillation counter. The radioactivity bound to the filters was also measured.
Statistical analysis: The amount of [^3H]-ACh released in each sample was calculated as fraction of total synaptosomal tritium at the start of the respective collection period (tritium in the sample / sum of tritium in the respective fractions and in the synaptosomes on the filter). K^+-evoked release was expressed as percentage of basal release rate. Each n=1 represents the mean of an experiment with one synaptosomal preparation in at least 3 superfusion chambers. Statistical significance of group variances was calculated by one way ANOVA followed by Bonferroni's test.

[11] = target: σ receptors labelled by [^3H]DTG (σ1 + σ2); experiment: Sigma receptor binding assay, [3H]DTG; conditions: read-out: IC50 ± SEM [^3H]DTG (σ1 + σ2); guinea pig brain membranes; compounds 1-5 tested up to 10 µM
Method: as §1

[12] = target: T6, K receptor (Cavia porcellus, UniProt P41144); assay type: biochemical, guinea pig
T6 construct: Membrane fractions were prepared from Sprague-Dawley rat or guinea pig brains; from tissue; host or cells: guinea pig brain (without cerebella) membranes

[13] = target: T7, electric eel AChE (EC 3.1.1.7) (Electrophorus electricus, UniProt O42275); experiment: Spectrophotometric assay for AChE inhibitory activity (modified Ellman's method); assay type: biochemical; conditions: 96-well microplate, 1% DMSO; read-out: AChE inhibitory activity IC50
T7 construct: purchased Sigma-Aldrich, Germany
T7 sequence (O42275 24-633): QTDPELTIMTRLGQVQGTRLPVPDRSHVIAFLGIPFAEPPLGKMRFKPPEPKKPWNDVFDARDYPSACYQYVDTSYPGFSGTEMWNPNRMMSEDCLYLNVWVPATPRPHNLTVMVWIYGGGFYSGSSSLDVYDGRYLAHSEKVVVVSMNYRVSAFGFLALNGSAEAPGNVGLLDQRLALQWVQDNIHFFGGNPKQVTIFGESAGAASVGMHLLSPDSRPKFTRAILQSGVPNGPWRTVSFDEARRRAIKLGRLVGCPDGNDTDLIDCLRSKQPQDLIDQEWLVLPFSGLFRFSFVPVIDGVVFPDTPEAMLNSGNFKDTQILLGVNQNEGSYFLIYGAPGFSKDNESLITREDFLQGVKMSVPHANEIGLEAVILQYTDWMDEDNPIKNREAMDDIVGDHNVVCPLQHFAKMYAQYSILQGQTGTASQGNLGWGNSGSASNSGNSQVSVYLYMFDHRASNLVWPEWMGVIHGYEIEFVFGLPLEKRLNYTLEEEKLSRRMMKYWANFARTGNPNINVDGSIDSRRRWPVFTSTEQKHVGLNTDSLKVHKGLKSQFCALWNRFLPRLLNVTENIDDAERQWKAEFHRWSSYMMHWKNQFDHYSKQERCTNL

T3 sequence (P33535 whole entry): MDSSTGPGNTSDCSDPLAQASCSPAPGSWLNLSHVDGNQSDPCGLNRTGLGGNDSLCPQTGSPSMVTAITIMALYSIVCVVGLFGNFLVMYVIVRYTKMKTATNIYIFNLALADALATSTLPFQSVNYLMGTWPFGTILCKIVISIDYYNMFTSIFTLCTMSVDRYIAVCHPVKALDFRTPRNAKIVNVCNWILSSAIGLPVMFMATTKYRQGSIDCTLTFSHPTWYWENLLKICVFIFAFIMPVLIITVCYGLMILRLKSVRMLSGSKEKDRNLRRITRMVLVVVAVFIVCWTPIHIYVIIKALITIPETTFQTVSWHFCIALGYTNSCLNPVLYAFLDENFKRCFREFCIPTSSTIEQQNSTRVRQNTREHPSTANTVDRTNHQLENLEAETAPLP
T4 sequence (P41144 whole entry): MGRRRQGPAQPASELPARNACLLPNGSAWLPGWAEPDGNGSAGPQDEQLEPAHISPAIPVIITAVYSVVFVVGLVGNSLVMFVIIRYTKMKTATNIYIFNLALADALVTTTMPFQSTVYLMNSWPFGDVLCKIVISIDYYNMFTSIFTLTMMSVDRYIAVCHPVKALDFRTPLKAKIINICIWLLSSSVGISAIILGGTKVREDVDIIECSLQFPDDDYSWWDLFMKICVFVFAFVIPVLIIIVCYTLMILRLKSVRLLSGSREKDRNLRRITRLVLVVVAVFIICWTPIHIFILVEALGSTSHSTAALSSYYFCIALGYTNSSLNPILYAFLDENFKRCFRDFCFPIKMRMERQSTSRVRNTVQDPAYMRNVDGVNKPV
T2 sequence (P33533 whole entry): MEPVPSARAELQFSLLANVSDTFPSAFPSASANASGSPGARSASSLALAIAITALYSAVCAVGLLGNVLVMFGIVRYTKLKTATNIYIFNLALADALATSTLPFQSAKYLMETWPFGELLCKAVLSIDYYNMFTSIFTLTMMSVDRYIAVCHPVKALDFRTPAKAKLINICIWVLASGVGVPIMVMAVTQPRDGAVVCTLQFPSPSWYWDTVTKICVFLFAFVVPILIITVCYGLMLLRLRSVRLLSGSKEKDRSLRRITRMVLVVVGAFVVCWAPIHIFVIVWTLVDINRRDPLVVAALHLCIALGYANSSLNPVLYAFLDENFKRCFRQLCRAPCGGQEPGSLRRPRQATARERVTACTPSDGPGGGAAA
T1 sequence (Q60492 whole entry): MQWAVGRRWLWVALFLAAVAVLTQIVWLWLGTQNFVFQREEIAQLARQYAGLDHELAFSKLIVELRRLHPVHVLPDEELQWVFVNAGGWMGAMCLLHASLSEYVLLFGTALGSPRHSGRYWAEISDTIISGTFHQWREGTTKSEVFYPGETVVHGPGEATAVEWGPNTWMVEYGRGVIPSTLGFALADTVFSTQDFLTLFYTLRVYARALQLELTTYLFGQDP
T5 sequence (P33533 whole entry): as the sequence (P33533 whole entry) above
T6 sequence (P41144 whole entry): as the sequence (P41144 whole entry) above

CN1[C@@H]2C[C@@H](OC(=O)[C@H](CO)c3ccccc3)C[C@H]1[C@@H]1O[C@@H]12 [Scopolamine, scopolamine, reference compound]
object recognition, exploration ratio novel/familiar object [1]: close to one | running time ([2]; 0.033 µmol): only a moderate increase | spontaneous alternation ([2]; 0.033 µmol): profound decrease | running time ([2]; dose series, bell-shaped curve, not shown): strong increase | spontaneous alternation ([2]; dose series, not shown): dose-dependent reduction

Nc1c2c(nc3ccccc13)CCCC2 [Tacrine, tacrine, reference compound]
dose dependence of the increase in extracellular brain ACh ([3]; rat, in vivo): pronounced and dose-dependent increases

CCCN1CCC[C@H](c2cccc(O)c2)C1 [(+)-3-PPP, reference compound]
IC50 [4]: 0.0682 ± 0.0048 µM

O=CN1CC[C@]23CC(=O)CC[C@H]2[C@H]1CC1=C3C(=O)C=CC1=O [1,4-dione-N-formylmorphinan-6-one]
binding to opioid receptor δ (in words) [5]: does not bind | binding to opioid receptor µ (in words) [6]: does not bind | binding to opioid receptor K (in words) [7]: does not bind

C=CCN1C[C@H](C)N([C@H](c2ccc(C(=O)N(CC)CC)cc2)c2cccc(OC)c2)C[C@H]1C [SNC 80, reference compound]
Emax ([8]; data not shown, read-out: Emax (% of basal activity)): 137 ± 4%

C=CCN1CC[C@]23CC(=O)CC[C@@]2(OC)[C@H]1Cc1cccc(OC)c13 [4,14-dimethoxy-N-allyl-morphinan-6-one]
function at the µ opioid receptor [9]: antagonistic function

COc1ccc2c3c1O[C@H]1C[C@@H](O)C=C[C@@]31CCN(C)C2 [Galantamine, galantamine, reference compound]
0AUC120 min (% increase x min) Mean ± SEM ([3]; Dose 0.5 µmol i.c.v.): 642 ± 85 % increase x min | Increase in ACh release (Peak increase as % of basal output) ([3]; Dose 0.5 µmol i.c.v.): 118 ± 29 % | 0AUC120 min (% increase x min) Mean ± SEM ([3]; Dose 1 µmol i.c.v.): 1857 ± 173 % increase x min | Increase in ACh release (Peak increase as % of basal output) ([3]; Dose 1 µmol i.c.v.): 101 ± 42 % | concentration of maximal effect on stimulation-evoked ACh release [10]: 1 µM

Cc1ccccc1NC(=N)Nc1ccccc1C [DTG, reference compound]
IC50 [11]: 0.126 ± 0.005 µM

Oc1ccc2c3c1O[C@H]1c4[nH]c5c(c4C[C@@]4(O)[C@@H](C2)N(CC2CC2)CC[C@]314)C[C@@]1(O)[C@H]2Cc3ccc(O)c4c3[C@@]1(CCN2CC1CC1)[C@H]5O4 [Nor-BNI, reference compound]
effect on [35S]GTPγS binding stimulated by U69,593 [12]: highly effective in inhibiting

Oc1ccc2c3c1O[C@H]1c4[nH]c5ccccc5c4C[C@@]4(O)[C@@H](C2)N(CC2CC2)CC[C@]314 [naltrindole, reference compound]
effect on [35S]GTPγS binding stimulated by SNC 80 ([8]; compound 10 µM, SNC 80 10 µM): markedly decreased

CC(C)=CCN1CCC2(C)c3cc(O)ccc3CC1C2C (racemic) [(±)Pentazocine, reference compound]
IC50 [11]: 0.0546 ± 0.0053 µM

C=CCN1CC[C@]2(C)c3cc(O)ccc3C[C@H]1[C@H]2C [(+)-SKF-10,047, reference compound]
IC50 [11]: 0.291 ± 0.014 µM

O=CN1CC[C@]23c4c5cccc4OC2C(=O)CC[C@H]3[C@H]1C5 (stereo partly drawn) [4,5-epoxy-N-formylmorphinan-6-one]
binding to opioid receptor δ (in words) [5]: does not bind | binding to opioid receptor µ (in words) [6]: does not bind | binding to opioid receptor K (in words) [7]: does not bind

COc1cccc2c1[C@]13CCN(CC4CC4)[C@H](C2)[C@]1(OC)CCC(=O)C3 [cyprodime, reference compound]
effect on [35S]GTPγS binding stimulated by DAMGO ([9]; compound 10 µM, DAMGO 10 µM, rat brain membranes): significantly decreased

O=CN1CC[C@]23CC(=O)CC[C@H]2[C@H]1CC1=C3C(=O)C=CC1=O [Compound 2, 1,4-dione-N-formylmorphinan-6-one]
IC50 [11]: > 0.01 µM | IC50 [4]: > 10 µM | effect on ACh in the superfusate (in words) ([3]; 0.5 µmol i.c.v.): short increase in ACh concentration followed by a decrease | toxicity at higher doses ([3]; 1 µmol and above, i.c.v., anaesthetized rats): could not be tested because of toxicity | 0AUC120 min (% increase x min) Mean ± SEM ([3]; Dose 0.5 µmol i.c.v.): 98 ± 27 % increase x min | Increase in ACh release (Peak increase as % of basal output) ([3]; Dose 0.5 µmol i.c.v.): 57 ± 14 % | IC50 [13]: 12.7 µM | Ki ([5]; [3H][Ile5,6]deltorphin II, rat brain membranes, read-out: Opioid binding affinities Ki δ receptor): > 10 µM | Ki ([5]; no specific binding, read-out: Ki, δ opioid receptor): > 10 µM | Ki ([6]; [3H]DAMGO, rat brain membranes, read-out: Opioid binding affinities Ki µ receptor): > 10 µM | Ki ([6]; no specific binding, read-out: Ki, µ opioid receptor): > 10 µM | Ki ([7]; [3H]U69,593, guinea pig brain membranes, read-out: Opioid binding affinities Ki κ receptor): > 10 µM | Ki ([7]; no specific binding, read-out: Ki, k opioid receptor): > 10 µM
